How the values were obtained:
[1] = tested on: sildenafil aptamer molecular gate (SDF-Aptamer + 3' TGCAAT) (DNA, aptamer) ATTGCAAACCCTCTACCAACAATCGTACTCGTTCGACGTGATGCAAT; assay: TMB release from aptamer-gated silica nanoparticles; conditions: 1 µM sildenafil; immobilised aptamer gate; about 63 ± 6.2% of TMB released; control leakage 7.2 ± 4.4%
[2] = tested on: SDF-Aptamer (DNA, aptamer) ATTGCAAACCCTCTACCAACAATCGTACTCGTTCGACGTGA; assay: fluorescent graphene oxide assay, Langmuir one-ligand fit; conditions: K+ 2.7 mM, Na+ 137 mM; PBS (0.01 M phosphate, pH 7.4), 25 °C; aptamer 1 µM; unbound aptamer removed with 4 mg/mL GO; salt form used not stated (b30 mentions citrate)

binding [1]: yes
KD [2]: 205.3 ± 38.1 nM
SMILES: CCCc1nn(C)c2c(=O)[nH]c(-c3cc(S(=O)(=O)N4CCN(C)CC4)ccc3OCC)nc12
